Patent publication US10870647B2, “Imidazopyridine derivative, method for preparing same, and pharmaceutical composition containing same as active ingredient for preventing or treating cancer” (DAEGU-GYEONGBUK MEDICAL INNOVATION FOUNDATION, priority 2016, dated 2020)

Experiments:
Experiment in all cases: Kinase selectivity, scanMAX Kinase assay panel (DiscoverX), % control at 1 uM
Type in all cases: binding
[1] = molecular target: T1, scanMAX Kinase assay panel (Homo sapiens, UniProt Q9UHD2); settings: TBK1; 1 uM; read-out: Percent Control (%)
T1 construct: purchased DiscoverX
T1 sequence (Q9UHD2 1-729): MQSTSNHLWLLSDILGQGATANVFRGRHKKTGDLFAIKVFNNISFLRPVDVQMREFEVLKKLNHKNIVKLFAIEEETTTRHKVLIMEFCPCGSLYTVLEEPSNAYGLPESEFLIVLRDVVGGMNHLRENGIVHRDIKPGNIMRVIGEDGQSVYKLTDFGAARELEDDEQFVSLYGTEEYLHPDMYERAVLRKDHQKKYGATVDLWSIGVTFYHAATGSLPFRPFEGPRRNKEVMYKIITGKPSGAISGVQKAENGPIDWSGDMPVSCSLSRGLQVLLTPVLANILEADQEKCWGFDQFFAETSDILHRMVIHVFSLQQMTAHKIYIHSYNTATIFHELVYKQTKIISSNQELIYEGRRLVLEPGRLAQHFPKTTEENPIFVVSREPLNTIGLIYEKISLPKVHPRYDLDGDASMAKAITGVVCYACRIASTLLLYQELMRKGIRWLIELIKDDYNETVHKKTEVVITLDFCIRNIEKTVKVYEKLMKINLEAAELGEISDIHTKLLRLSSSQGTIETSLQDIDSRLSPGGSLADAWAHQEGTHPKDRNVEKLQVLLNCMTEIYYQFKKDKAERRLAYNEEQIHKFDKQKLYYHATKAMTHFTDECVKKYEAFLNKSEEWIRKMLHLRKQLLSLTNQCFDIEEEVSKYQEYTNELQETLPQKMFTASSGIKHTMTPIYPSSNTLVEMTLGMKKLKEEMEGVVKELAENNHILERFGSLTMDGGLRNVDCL
How it was run: (§1)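 1 uM cpd (DMSO) per kinase; % ctrl = [cpd − pos ctrl]/[neg ctrl − pos ctrl] × 100; hit if <35.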

[2] = molecular target: T2, scanMAX Kinase assay panel (Homo sapiens, UniProt Q12852); settings: DLK; 1 uM; read-out: Percent Control (%)
T2 construct: purchased DiscoverX
T2 sequence (Q12852 1-859): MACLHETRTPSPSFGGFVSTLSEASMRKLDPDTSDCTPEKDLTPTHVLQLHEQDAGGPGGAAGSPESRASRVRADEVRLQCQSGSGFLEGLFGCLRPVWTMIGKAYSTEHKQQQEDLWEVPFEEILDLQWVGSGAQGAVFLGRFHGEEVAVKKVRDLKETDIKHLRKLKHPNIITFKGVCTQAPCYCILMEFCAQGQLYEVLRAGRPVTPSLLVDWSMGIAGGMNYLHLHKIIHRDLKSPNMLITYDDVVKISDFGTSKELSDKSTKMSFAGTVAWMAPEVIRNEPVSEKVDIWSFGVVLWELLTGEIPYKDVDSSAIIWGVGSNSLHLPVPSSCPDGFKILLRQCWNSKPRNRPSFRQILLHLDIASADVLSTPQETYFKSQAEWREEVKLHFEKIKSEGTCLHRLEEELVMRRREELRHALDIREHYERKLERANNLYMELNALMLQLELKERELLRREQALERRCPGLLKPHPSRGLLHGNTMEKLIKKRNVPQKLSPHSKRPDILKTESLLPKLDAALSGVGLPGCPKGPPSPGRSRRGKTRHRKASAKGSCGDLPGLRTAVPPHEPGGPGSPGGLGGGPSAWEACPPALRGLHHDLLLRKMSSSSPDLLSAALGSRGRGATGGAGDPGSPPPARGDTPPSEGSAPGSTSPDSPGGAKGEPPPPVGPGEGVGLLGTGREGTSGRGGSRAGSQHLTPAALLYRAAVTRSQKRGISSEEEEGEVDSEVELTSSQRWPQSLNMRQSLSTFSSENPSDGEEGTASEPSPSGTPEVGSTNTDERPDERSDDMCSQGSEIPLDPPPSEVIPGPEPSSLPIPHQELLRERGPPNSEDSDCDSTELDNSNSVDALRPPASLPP
How it was run: as §1

[3] = molecular target: T3, scanMAX Kinase assay panel (Homo sapiens, UniProt O15197); settings: EPHB6; 1 uM; read-out: Percent Control (%)
T3 construct: purchased DiscoverX
T3 sequence (O15197 32-1021): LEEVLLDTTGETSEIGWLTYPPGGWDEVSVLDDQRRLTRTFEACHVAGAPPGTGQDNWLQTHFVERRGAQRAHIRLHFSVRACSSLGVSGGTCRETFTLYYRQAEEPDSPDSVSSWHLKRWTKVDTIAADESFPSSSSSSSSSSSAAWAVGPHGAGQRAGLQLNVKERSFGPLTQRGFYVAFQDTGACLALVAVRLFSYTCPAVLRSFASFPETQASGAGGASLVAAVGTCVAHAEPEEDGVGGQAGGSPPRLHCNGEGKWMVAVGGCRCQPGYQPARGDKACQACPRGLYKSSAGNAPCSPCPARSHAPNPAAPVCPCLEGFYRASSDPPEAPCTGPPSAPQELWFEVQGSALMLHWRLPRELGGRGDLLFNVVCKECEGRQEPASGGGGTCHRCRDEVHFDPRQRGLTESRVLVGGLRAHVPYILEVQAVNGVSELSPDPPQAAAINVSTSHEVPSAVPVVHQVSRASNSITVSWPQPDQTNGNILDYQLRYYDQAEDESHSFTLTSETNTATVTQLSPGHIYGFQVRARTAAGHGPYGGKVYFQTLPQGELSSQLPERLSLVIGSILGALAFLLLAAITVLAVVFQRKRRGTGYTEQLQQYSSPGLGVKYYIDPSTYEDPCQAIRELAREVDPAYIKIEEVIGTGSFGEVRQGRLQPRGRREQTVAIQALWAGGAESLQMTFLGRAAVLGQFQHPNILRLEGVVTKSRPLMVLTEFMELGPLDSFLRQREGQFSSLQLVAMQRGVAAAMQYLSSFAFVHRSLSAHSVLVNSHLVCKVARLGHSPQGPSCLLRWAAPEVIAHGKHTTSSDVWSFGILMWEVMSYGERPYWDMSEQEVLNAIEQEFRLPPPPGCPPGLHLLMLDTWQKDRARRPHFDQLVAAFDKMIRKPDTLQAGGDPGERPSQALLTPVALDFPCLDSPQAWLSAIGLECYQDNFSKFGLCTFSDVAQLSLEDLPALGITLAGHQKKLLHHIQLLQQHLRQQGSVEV
How it was run: as §1

[4] = molecular target: T4, scanMAX Kinase assay panel (Homo sapiens, UniProt P80192); settings: MLK1; 1 uM; read-out: Percent Control (%)
T4 construct: purchased DiscoverX
How it was run: as §1

T4 sequence (P80192 whole entry): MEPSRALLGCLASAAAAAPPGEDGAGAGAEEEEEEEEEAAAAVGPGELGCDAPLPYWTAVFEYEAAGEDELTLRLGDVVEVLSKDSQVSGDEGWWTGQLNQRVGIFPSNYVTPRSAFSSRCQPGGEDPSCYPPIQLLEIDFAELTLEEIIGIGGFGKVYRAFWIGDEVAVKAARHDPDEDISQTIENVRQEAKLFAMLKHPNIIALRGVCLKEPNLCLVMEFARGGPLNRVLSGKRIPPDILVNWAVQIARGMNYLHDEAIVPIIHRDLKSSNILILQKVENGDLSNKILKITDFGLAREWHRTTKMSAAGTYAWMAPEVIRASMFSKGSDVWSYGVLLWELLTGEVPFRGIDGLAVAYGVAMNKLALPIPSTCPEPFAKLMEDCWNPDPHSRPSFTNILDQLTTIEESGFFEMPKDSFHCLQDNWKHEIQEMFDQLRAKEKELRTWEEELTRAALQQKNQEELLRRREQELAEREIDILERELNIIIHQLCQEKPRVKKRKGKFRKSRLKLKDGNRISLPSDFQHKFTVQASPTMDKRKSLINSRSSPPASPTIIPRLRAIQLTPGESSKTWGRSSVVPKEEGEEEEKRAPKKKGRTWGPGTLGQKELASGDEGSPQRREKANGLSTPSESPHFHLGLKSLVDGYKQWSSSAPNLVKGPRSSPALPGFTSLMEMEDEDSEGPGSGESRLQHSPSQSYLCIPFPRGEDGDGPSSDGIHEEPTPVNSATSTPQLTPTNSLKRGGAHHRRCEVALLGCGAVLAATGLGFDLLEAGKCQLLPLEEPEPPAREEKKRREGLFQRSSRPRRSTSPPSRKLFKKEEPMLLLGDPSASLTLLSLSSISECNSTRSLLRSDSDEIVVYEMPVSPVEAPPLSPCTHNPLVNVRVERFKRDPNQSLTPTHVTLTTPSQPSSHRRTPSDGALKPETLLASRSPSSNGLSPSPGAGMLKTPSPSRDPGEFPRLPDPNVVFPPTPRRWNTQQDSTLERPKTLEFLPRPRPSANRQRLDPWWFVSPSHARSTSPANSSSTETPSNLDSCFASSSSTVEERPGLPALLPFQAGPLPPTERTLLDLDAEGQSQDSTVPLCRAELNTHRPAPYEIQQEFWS

Question: `Cc1ccc(NC(=O)C2(C(=O)Nc3ccc(F)cc3)CC2)cc1C#Cc1cnc2c(Nc3cnn(C(C)C)c3)cccn12` [Example 78] was tested. Which remaining binding at 1 µM [1] did it give?
Answer: 100%

Question: And the remaining binding at 1 µM [2]?
Answer: 100%

Question: What about the remaining binding at 1 µM [3] of the same molecule?
Answer: 0%

Question: And the remaining binding at 1 µM [4]?
Answer: 100%

Question: `Cc1cn(-c2cc(NC(=O)c3ccc(C)c(C#Cc4cnc5c(Nc6cnn(C)c6)cccn45)c3)cc(C(F)(F)F)c2)cn1` [Example 12, 4-methyl-N-(3-(4-methyl-1H-imidazol-1-yl)-5-(trifluoromethyl)phenyl)-3-((8-((1-methyl-1H-pyrazol-4-yl)amino)imidazo[1,2-a]pyridin-3-yl)ethynyl)benzamide] was tested. Which remaining binding at 1 µM [1] did it give?
Answer: 84%

Question: What about the remaining binding at 1 µM [2] of the same molecule?
Answer: 100%

Question: What about the remaining binding at 1 µM [3] of the same molecule?
Answer: 0%

Question: What about the remaining binding at 1 µM [4] of the same molecule?
Answer: 35%

Question: Which remaining binding at 1 µM [1] does the source give for `Cc1ccc(C(=O)Nc2ccc(CN3CCN(C)CC3)c(C(F)(F)F)c2)cc1C#Cc1cnc2c(Nc3cnn(C)c3)cccn12` [Example 1, 4-methyl-3-((8-((1-methyl-1H-pyrazol-4-yl)amino)imidazo[1,2-a]pyridin-3-yl)ethynyl)-N-(4-((4-methylpiperazin-1-yl)methyl)-3-(trifluoromethyl)phenyl)benzamide] here?
Answer: 68%

Question: What about the remaining binding at 1 µM [2] of the same molecule?
Answer: 29%

Question: What about the remaining binding at 1 µM [3] of the same molecule?
Answer: 1%

Question: And the remaining binding at 1 µM [4]?
Answer: 3%
